Experiments:
[1] = test system: MDR1; assay: in vitro; conditions: dog; for Papp A→B at 120 min, 5 μM: MDCK-MDR1, pH 7.4, MDCK-MDR1: Papp A-B (10^−6, cm/s); for Papp B→A at 120 min, 5 μM: MDCK-MDR1, pH 7.4, MDCK-MDR1: Papp B-A (10^−6, cm/s)
Protocol: (§1) Experimental Procedure: MDR1-MDCK cell monolayers are grown to confluence on collagen-coated, microporous membranes in 12-well assay plates. The permeability assay buffer is Hanks' balanced salt solution containing 10 mM HEPES and 15 mM glucose at a pH of 7.4. The buffer in the receiver chamber also contained 1% bovine serum albumin. The dosing solution concentration is 5 μM of test article in the assay buffer. Cell monolayers are dosed on the apical side (A-to-B) or basolateral side (B-to-A) and incubated at 37° C. with 5% CO2 in a humidified incubator. Samples are taken from the donor and receiver chambers at 120 minutes. Each determination is performed in duplicate. The flux of lucifer yellow is also measured post-experimentally for each monolayer to ensure no damage was inflicted to the cell monolayers during the flux period. All samples are assayed by LC-MS/MS using electrospray ionization.
(§2) Analytical Method: Liquid Chromatography • Column: Waters ACQUITY UPLC BEH Phenyl 30×2.1 mm, 1.7 μm • M.P. Buffer: 25 mM ammonium formate buffer, pH 3.5 • Aqueous Reservoir (A): 90% water, 10% buffer • Organic Reservoir (B): 90% acetonitrile, 10% buffer • Flow Rate: 0.7 mL/minute • Gradient Program:
(§3) • Total Run Time: 1.00 minute • Autosampler: 2 μL injection volume • Wash1: water/methanol/2-propanol:1/1/1; with 0.2% formic acid • Wash2: 0.1% formic acid in water • Brain Penetration • Potential Classification: A-B Papp≥3.0 and Efflux Ratio<3.0: High • A-B Papp≥3.0 and 10>Efflux Ratio≥3.0: Moderate • A-B Papp≥3.0 and Efflux Ratio≥10: Low • A-B Papp<3.0: Low

[2] = test system: SMN protein; assay: SMN protein assay (MSD) in SMA patient fibroblasts (GM03813); type: cell-based, human
Method in brief: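 Absolute SMN protein measured by Mesoscale Discovery assay in lysates, calibrated per plate with SMN standards (1–19.5 μg/ml). Cells: GM03813 SMA fibroblasts, 7000/well, 48 h compound exposure at doses of 2.5 μM down to 0.6 nM.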

[3] = test system: MDR1-MDCK cell monolayers; conditions: dog, MDCK-MDR1, 120 min, 5 μM, pH 7.4
Protocol: as §1, §2, §3

[4] = test system: MDR1 (P-gp); assay: MDCK-MDR1 permeability assay, blood-brain-barrier penetration potential; conditions: dog, MDCK-MDR1, pH 7.4, MDCK-MDR1 Efflux Ratio
Protocol: as §1, §2, §3

| Compound | Papp A→B at 120 min, 5 μM [1] | Papp B→A at 120 min, 5 μM [1] | EC50 [2] | MDCK-MDR1: % Recov A-B (%) [3] | MDCK-MDR1: % Recov B-A (%) [3] | efflux ratio at 120 min, 5 μM [4] |
| --- | --- | --- | --- | --- | --- | --- |
| CN(c1cnc(-c2ccc(-c3cc[nH]c(=O)c3)cc2O)cn1)[C@@H]1CC2CC[C@H](N2)[C@@H]1F (single isomer, unassigned) [Compound 76E1] | 0.29 ×10⁻⁶ cm/s | 30.1 ×10⁻⁶ cm/s | 51 to 100 nM | 89% | 75% | 102 |
| CNC(=O)c1cc(O)c(-c2cnc(N(C)[C@H]3C[C@@H]4CCC(N4)[C@H]3F)cn2)cc1F (single isomer, unassigned) [Compound 15E2] | 2.66 ×10⁻⁶ cm/s | 68.8 ×10⁻⁶ cm/s | 501 to 10000 nM | 85% | 86% | 26 |
| COc1cc(-c2ccc(-c3cnc(N(C)[C@@H]4CC5COC[C@H](N5)[C@@H]4F)cn3)c(O)c2)cnn1 (single isomer, unassigned) [Compound 74E1] | 1.87 ×10⁻⁶ cm/s | 45.5 ×10⁻⁶ cm/s | 501 to 10000 nM | 88% | 98% | 24 |
| Cn1ccc(-c2cc(O)c(-c3cnc(N(C4CC4)[C@@H]4CC5CC[C@H](N5)[C@@H]4F)cn3)cc2F)cc1=O (single isomer, unassigned) [Compound 38E1] | 1.47 ×10⁻⁶ cm/s | 54.9 ×10⁻⁶ cm/s | 501 to 10000 nM | 81% | 94% | 37 |
| Cn1cnc(-c2ccc(-c3cnc(N(C4CC4)[C@H]4C[C@@H]5CCC(N5)[C@H]4F)cn3)c(O)c2)cc1=O (single isomer, unassigned) [Compound 55E2] | 2.25 ×10⁻⁶ cm/s | 42.2 ×10⁻⁶ cm/s | 501 to 10000 nM | 71% | 76% | 19 |
| CN(c1cnc(-c2cc(F)c(-c3cc(=O)n(C)cn3)cc2O)cn1)[C@H]1C[C@@H]2CCC(N2)[C@H]1F (single isomer, unassigned) [Compound 33E2] | 3.5 ×10⁻⁶ cm/s | 62.7 ×10⁻⁶ cm/s | 501 to 10000 nM | 91% | 99% | 18 |
| COc1cc(-c2ccc(-c3cnc(N(C4CC4)[C@H]4C[C@@H]5CCC(N5)[C@H]4F)cn3)c(O)c2)cc(F)n1 (single isomer, unassigned) [Compound 52E2] | 1.63 ×10⁻⁶ cm/s | 3.32 ×10⁻⁶ cm/s | 501 to 10000 nM | 12% | 49% | 2 |
| COc1cc(-c2cc(O)c(-c3cnc(N(C4CC4)[C@H]4C[C@@H]5CCC(N5)[C@H]4F)cn3)cc2F)cc(F)n1 (single isomer, unassigned) [Compound 37E2] | 0.94 ×10⁻⁶ cm/s | 2.58 ×10⁻⁶ cm/s | 501 to 10000 nM | 19% | 45% | 3 |
| CN(c1cnc(-c2ccc(-c3cn[nH]c3)cc2O)cn1)[C@@H]1C[C@H]2CCC(N2)[C@@H]1F (single isomer, unassigned) [Compound 8E1] | 3.58 ×10⁻⁶ cm/s | 33.3 ×10⁻⁶ cm/s | 501 to 10000 nM | 72% | 71% | 9 |
| CN(c1cnc(-c2ccc(-c3cnn(C)c3)cc2O)cn1)[C@@H]1CC2COC[C@H](N2)[C@@H]1F (single isomer, unassigned) [Compound 73E1] | 11.5 ×10⁻⁶ cm/s | 38.1 ×10⁻⁶ cm/s | 101 to 500 nM | 50% | 71% | 3 |
| CN(c1cnc(-c2cc(F)c(-c3cnn(C)c3)cc2O)cn1)[C@@H]1CC2N[C@H](C1)CC2(F)F (single isomer, unassigned) [Compound 66E2] | 22.7 ×10⁻⁶ cm/s | 18.3 ×10⁻⁶ cm/s | 501 to 10000 nM | 43% | 55% | 1 |
| Cc1nc(-c2ccc(-c3cnc(N(C)[C@@H]4CC5CC[C@H](N5)[C@@H]4F)cn3)c(O)c2)no1 (single isomer, unassigned) [Compound 69E1] | 9.43 ×10⁻⁶ cm/s | 17.9 ×10⁻⁶ cm/s | 501 to 10000 nM | 49% | 61% | 2 |
| Cc1cc(-c2ccc(-c3cnc(N(C)[C@@H]4CC5CC[C@H](N5)[C@@H]4F)cn3)c(O)c2)cc(=O)[nH]1 (single isomer, unassigned) [Compound 77E1] | 0.34 ×10⁻⁶ cm/s | 21.9 ×10⁻⁶ cm/s | 501 to 10000 nM | 64% | 71% | 64 |
| COc1cc(-c2cc(O)c(-c3cnc(N(C)[C@H]4C[C@@H]5CCC(N5)[C@H]4F)cn3)cc2F)ccn1 (single isomer, unassigned) [Compound 30E2] | 2.55 ×10⁻⁶ cm/s | 4.14 ×10⁻⁶ cm/s | 51 to 100 nM | 10% | 37% | 2 |
| Cn1ccc(-c2ccc(-c3cnc(N(C4CC4)[C@@H]4CC5CC[C@H](N5)[C@@H]4F)cn3)c(O)c2)cc1=O (single isomer, unassigned) [Compound 53E1] | 1.51 ×10⁻⁶ cm/s | 50.9 ×10⁻⁶ cm/s | 501 to 10000 nM | 71% | 71% | 34 |
| COc1cc(-c2ccc(-c3cnc(N(C)[C@H]4C[C@@H]5CCC(N5)[C@H]4F)cn3)c(O)c2)ncn1 (single isomer, unassigned) [Compound 48E2] | 5.38 ×10⁻⁶ cm/s | 13.8 ×10⁻⁶ cm/s | 51 to 100 nM | 28% | 57% | 3 |
| COc1cc(-c2cc(O)c(-c3cnc(N(C)[C@@H]4C[C@@]5(C)CC[C@](C)(N5)[C@@H]4F)cn3)cc2F)cnn1 (single isomer, unassigned) [Compound 64E1] | 3.97 ×10⁻⁶ cm/s | 49.8 ×10⁻⁶ cm/s | 501 to 10000 nM | 71% | 80% | 13 |
| CN(c1cnc(-c2ccc(-c3ccn(CF)c(=O)c3)cc2O)cn1)[C@@H]1CC2CC[C@H](N2)[C@@H]1F (single isomer, unassigned) [Compound 46E1] | 1.69 ×10⁻⁶ cm/s | 37.9 ×10⁻⁶ cm/s | 501 to 10000 nM | 74% | 78% | 22 |
| CN(c1cnc(-c2ccc(-c3cn[nH]c3)cc2O)cn1)[C@H]1CC2N[C@@H](C1)CC2(F)F (single isomer, unassigned) [Compound 9E1] | 17.9 ×10⁻⁶ cm/s | 51.6 ×10⁻⁶ cm/s | 501 to 10000 nM | 60% | 77% | 3 |
| CN(c1cnc(-c2cc(F)c(C3=CC(F)NC(F)=C3)cc2O)cn1)[C@@H]1C[C@@]2(C)CC[C@](C)(N2)[C@@H]1F (single isomer, unassigned) [Compound 63E1] | 0.7 ×10⁻⁶ cm/s | 0.45 ×10⁻⁶ cm/s | 501 to 10000 nM | 18% | 35% | 1 |
| Cn1cnc(-c2cc(O)c(-c3cnc(N(C4CC4)[C@H]4C[C@@H]5CCC(N5)[C@H]4F)cn3)cc2F)cc1=O (single isomer, unassigned) [Compound 50E2] | 1.29 ×10⁻⁶ cm/s | 49.3 ×10⁻⁶ cm/s | 501 to 10000 nM | 81% | 90% | 38 |
